Reference: patent US5688824A, “Use of leflunomide to prevent or control xenograft rejection” (priority 1996, dated 1997)
“Also recorded” adds a separate entry of the source. Where two headings read alike, the source gives them in different places.

How the values were obtained:
[1] = cited from earlier work
[2] = tested on: proteoglycan-induced arthritis; details: BALB/c mouse; cited from earlier work
[3] = tested on: chronic rejection of rat cardiac allografts; experiment: chronic rejection of rat cardiac allografts (LEW to F-344), histologic scoring of arterial intimal thickening; assay type: in vivo
Experimental: These rats share major histocompatibility antigens but differ at minor histocompatibility loci. A short course of immunosuppression results in a slow chronic rejection that gradually destroys the graft, with the appearance of reproducible histology similar to the chronic rejection seen in humans.
Donor and recipient animals were anesthetized with Ketamine/Xylazine (Fort Dodge, Iowa) 100/5 mg/kg. […] Cardiac allograft survival was determined by daily abdominal palpation, and rejection was considered complete upon cessation of heart beat.
The three control groups were given no treatment and were sacrificed at designated 30-day intervals to observe the development of chronic rejection. The treatment groups were administered daily doses of leflunomide or leflunomide and CsA according to Table 1 below, beginning at day 30 and continuing to day 60 or day 90. CsA in oral form (Sandimmune, Sandoz Corporation, East Hanover, N.J.) was administered at 2, 5 or 10 mg/kg to rats by gavage.
Upon sacrifice, the heart allograft was removed, serially sectioned into approximately 2-mm slices, and fixed in 10% buffered formalin overnight. The sections were embedded in paraffin and stained with hematoxylin and eosin, Verhoeff's elastin stain and Masson's trichrome stain to evaluate pathologic changes and to score graft arterial intimal thickening. The remaining sections were immunostained using standard indirect avidin-biotin techniques (Vectastain ABC-Elite, Vector Laboratories, Burlingame, Calif.) with monoclonal antibodies against smooth muscle actin (DAKO, Carpin Terra, Calif.) to evaluate intimal smooth muscle proliferation, and with polyclonal antibodies against phosphotyrosine to evaluate tyrosine kinase activity by counting phosphotyrosine positive cells. […] Allospecific antibody titres among the groups were compared using the unpaired Student's t-test.
The sections were examined by light microscopy, and 20 to 70 arteries in each allograft were blindly scored for severity of arterial intimal thickening according to the general standard of Adams et al., supra, using the following histological scores: a score of 0 was a normal artery; a score of 1, intimal thickening up to approximately 50% of the perimeter of the vessel, with less than 20% luminal compromise; a score of 2, intimal thickening involving between 50% and 100% of the perimeter of the vessel, with less than 20% luminal compromise; score of 3, circumferential intimal thickening, with more than 20% but less than 50% luminal compromise; score of 4, circumferential intimal thickening, with more than 50% but less than 80% luminal compromise; score of 5, circumferential intimal thickening, with more than 80% luminal compromise. […] Statistical comparisons of histological scores were performed using the Mann-Whitney U--Wilcoxon Rank Sum W Test.

glomerulonephritis = details: oral 2 mg/kg/day, prophylactic or therapeutic; cited from earlier work
[4] = tested on: cardiac allografts, established acute rejection; details: cited from earlier work; for mean survival time of the cardiac allografts: 7 days
[5] = tested on: rejection of concordant hamster to rat renal xenografts; experiment: hamster to rat concordant renal xenograft rejection; assay type: in vivo, Golden Syrian hamster donor, LEW rat recipient
Experimental: Like Example 2, this experiment was also designed to determine a dose response curve using leflunomide as monotherapy, CsA as monotherapy, and both used as combination therapy. End points used to assess efficacy were duration of time to rejection, mortality, and histologic differences among the treatment groups.
Golden Syrian hamsters and LEW rats were maintained as in Example 2, and leflunomide and CsA were administered in the same manner as in Example 2. Renal transplantation was performed using cuffs of aorta and vena cava for vascular anastomosis; the donor ureter bearing a button of bladder was connected to the recipient bladder. Both recipient kidneys were removed at the time of transplantation.
Leflunomide monotherapy was dosed at 2.5, 5, 10 and 15 mg/kg. CsA monotherapy at 10 mg/kg was given to one group. Two groups were given combination therapy of leflunomide 5 mg/kg with CsA 5 mg/kg, and leflunomide 5 mg/kg with CsA 10 mg/kg. Serum creatinine was measured at 7 days and 21 days. Rejection was defined as death of the animal from uremia with histology consistent with immune-mediated injury.
At the death of the animal, the kidney graft was removed, fixed in formalin, and stained with hematoxylin and eosin to determine the extent of pathological change. IgG and IgM staining was also done on formalin-fixed tissue, using ABC Technique as for Example 2.

[6] = tested on: anti-donor specific IgM and IgG; experiment: anti-donor specific IgM and IgG titers by flow cytometry, cardiac xenografts; assay type: in vivo, rat; details: leflunomide alone
Experimental: Serum samples were obtained from the animals by drawing 0.2 ml of blood from the tail vein at two day intervals, for the first eight days after transplantation, and then at seven day intervals after day 14. Serum samples were stored at -80° C. The anti-donor specific IgM and IgG titers were measured using cervical lymph nodes from hamsters as target cells for flow cytometry. Lymphocytes obtained from the lymph nodes were washed with PBS and suspended at a concentration of 10^7 cells/ml. Aliquots of 50 μl containing ~5×10^5 lymphocytes were incubated with 50 μl of diluted sera (diluted 1:25 in phosphate buffered saline) for 30 minutes at 4° C. and then washed twice in 1 ml of PBS. IgM and IgG antibodies were stained by incubating the washed cells for 30 minutes at 4° C. with 50 μl of PBS containing a mixture of labeled goat antibodies specific for rat IgG and rat IgM (Jackson Immunoresearch Labs, Westgrove, Pa.). After staining, the cells were washed twice, fixed in 1% formalin and analyzed on the BPICS-C flow cytometry (Coulter Company), according to Williams et al., Transplantation, 57:1223-1231 (1994).

[7] = 2.5 mg/kg or 5 mg/kg leflunomide
[8] = 10 mg/kg and 15 mg/kg leflunomide

Cc1oncc1C(=O)Nc1ccc(C(F)(F)F)cc1 [leflunomide, N-(4-trifluoromethylphenyl)-5-methylisoxazol-4-carboxamide]
toxicity ([1]; animal studies, extremely high doses): liver and cardiac toxicity | tolerability ([1]; animals and man): well tolerated in animals and man | effect on arthritis [2]: suppresses acute inflammation and protects animals from new inflammatory episodes or acute exacerbation of chronically inflamed joints | effect on chronic rejection process ([3]; 5 mg/kg (each) from day 30, 10 mg/kg (each) day 60 to 90): able to halt the progression of chronic rejection and partially reverse the process of arterial thickening | mononuclear cell infiltration, myocardial fibrosis, smooth muscle proliferation ([3]; 5 mg/kg (each) from day 30, 10 mg/kg (each) day 60 to 90, day 90): Interstitial mononuclear cell infiltration and myocardial fibrosis were mild | arterial intimal thickening, change vs control ([3]; 5 mg/kg (each) from day 30, day 60): did not significantly improve by day 60 | Histological Scores (mean vascular histologic score) ([3]; Lef 5 mg/kg day 30 to 60, then 10 mg/kg day 60 to 90, group 8): 1.38±0.92 | Histological Scores (mean vascular histologic score) ([3]; Lef 5 mg/kg day 30 to 60, then 10 mg/kg day 60 to 90, group 8, listed as Lef): 1.4 ± 0.9 | Histological Scores (mean vascular histologic score) ([3]; Lef 5 mg/kg from day 30 to day 60, group 5, sacrificed day 60): 1.55±0.53 | Histological Scores (mean vascular histologic score) ([3]; Lef 5 mg/kg from day 30 to day 60, group 5, sacrificed day 60, listed as Lef): 1.6 ± 0.5 | effect on glomerulonephritis (glomerulonephritis): effective in both preventing and curing glomerulonephritis; also recorded: significant decrease in total urinary protein, plasma cholesterol and fibrinogen, as well as decreased deposition of fibrin, immunoglobulin G and complement C3 | prolongation of survival ([4]; 5 mg/kg by gavage, 7- or 14-day course from day of transplantation): approximately equal prolongations of survival | mononuclear leukocyte infiltration ([4]; started at day 4): completely cleared the mononuclear leukocyte infiltration on histological analysis | mean survival time of the cardiac allografts ([4]; started at day 4 post-transplantation): 25.4±1.4 days | mean survival time of the cardiac allografts ([4]; started at day 6 post-transplantation): 16.3±8.5 days | allospecific IgG response ([4]; started day 4): The generation of allospecific IgG response was inhibited | allospecific cytotoxic antibody production (primarily IgM) ([4]; started day 4): abrupt drop to near background levels after 7 days of treatment | reversal of acute rejection ([4]; therapy post-transplantation): effective in reversing acute rejection as determined by both functional and histological criteria | effect on survival [5, 7]: did not significantly increase survival time | histopathology [5, 7]: did not significantly alter histopathology compared to controls | mean serum creatinine values vs controls [5, 7]: slightly reduced | effect on survival [5, 8]: statistically significant improvement in survival | histology [5, 8]: the histology did not show significant rejection | Mean Creatinine Day 7 ([5]; Lef 2.5 mg/kg, group 2): 3.6 | Mean Survival ± S.D. ([5]; Lef 2.5 mg/kg, group 2): 8.5 ± 2.1 | Mean Creatinine Day 7 ([5]; Lef 5.0 mg/kg, group 3): 2.7 | Mean Survival ± S.D. ([5]; Lef 5.0 mg/kg, group 3): 7.0 ± 2.6 | Mean Creatinine Day 7 ([5]; Lef 10 mg/kg, group 4): 1.6 | Mean Survival ± S.D. ([5]; Lef 10 mg/kg, group 4): 17.0 ± 8.9 | Mean Creatinine Day 7 ([5]; Lef 15 mg/kg, group 5): 1.2 | Mean Survival ± S.D. ([5]; Lef 15 mg/kg, group 5): 13.2 ± 7.1 | Graft Survival for Each Subject ([5]; Lef 15 mg/kg, group 5, listed as Lef): 17,24 | terminal serum creatinine ([5]; appropriate dose of leflunomide, most of the animals): less than 2.5 | IgG levels [6]: IgG levels remained at baseline | IgM titres [6]: delayed and slowed the rise of IgM titres, but did not completely suppress IgM rise
